Measured values reported in ChEMBL document CHEMBL1201862, “PubChem BioAssay data set” (2004).
The source made the active and inactive calls.

Assays:
[1] = target: T1, Ubiquitin-conjugating enzyme E2 N (Homo sapiens, UniProt P61088); type: functional;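 also: Dose-response confirmation in a TR-FRET assay detecting UBC13-driven polyubiquitin chain formation, inhibition measured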
T1 sequence (P61088 whole entry): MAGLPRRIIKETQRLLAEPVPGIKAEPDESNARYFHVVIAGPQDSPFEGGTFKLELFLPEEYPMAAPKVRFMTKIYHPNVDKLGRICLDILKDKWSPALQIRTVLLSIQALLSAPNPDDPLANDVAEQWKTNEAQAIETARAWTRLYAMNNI

[2] = toxicity toward HepG2 liver cells – cell-based, plate reader, cherry-pick, antagonist series, cytotoxicity control, dose response (AID 743416); type: functional
[3] = A549 cell cytotoxicity, dose response, cytotoxicity control, plate reader, cherry-pick, antagonist series (AID 743412); type: functional, cell-based
[4] = blockers of bursicon-stimulated LGR2 cAMP reporter – cell-based, HEK293, CRE-luciferase reporter, cherry pick, set 2, dose response (AID 743343); type: functional;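 also: transfected cells were stimulated with diluted bursicon conditioned medium after compound addition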
[5] = viability loss in HEK293 cells – cell-based, plate reader, cherry-picked samples, cytotoxicity control, dose response (AID 743446); type: functional
[6] = target: DNA repair and recombination protein RAD54-like (Homo sapiens, UniProt Q92698); experiment: RAD54 Holliday junction migration blockers – biochemical, fluorescence, cherry-picked samples, dose series, confirmation (AID 651657); type: functional
[7] = target: T2, DNA repair protein RAD52 homolog (Homo sapiens, UniProt P43351); type: functional, biochemical
T2 sequence (P43351 whole entry): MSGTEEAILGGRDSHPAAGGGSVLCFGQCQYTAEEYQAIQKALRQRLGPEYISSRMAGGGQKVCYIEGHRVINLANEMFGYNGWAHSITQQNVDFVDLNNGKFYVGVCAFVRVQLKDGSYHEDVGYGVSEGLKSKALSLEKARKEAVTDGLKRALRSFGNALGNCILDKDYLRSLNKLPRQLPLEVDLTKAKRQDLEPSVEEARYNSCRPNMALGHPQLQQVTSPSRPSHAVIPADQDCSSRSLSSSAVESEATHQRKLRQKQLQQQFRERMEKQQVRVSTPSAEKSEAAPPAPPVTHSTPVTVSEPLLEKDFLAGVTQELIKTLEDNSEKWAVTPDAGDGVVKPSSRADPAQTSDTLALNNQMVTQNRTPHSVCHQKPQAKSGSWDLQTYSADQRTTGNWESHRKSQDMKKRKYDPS

[8] = blockade of melanocortin 4 receptor signaling – cell-based, plate reader, cherry pick, counter-screen for LGR2 antagonist project, dose response (AID 743444); type: functional;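 also: transfected HEK 293 cells stimulated with alpha-MSH peptide; potency of inhibitors of the alpha-MSH evoked signal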
[9] = cytotoxicity toward MDA-MB-231 breast cancer cells – cell-based, CellTiter-Glo luminescence, cherry-pick, cytotoxicity control for RAD54 inhibitor project, dose response (AID 651692); type: functional
[10] = target: T3, High affinity choline transporter 1 (Homo sapiens, UniProt Q9GZV3); experiment: human choline transporter blockers, potency – cell-based, 10-point CRC, membrane potential dye, dose response (AID 588401); type: functional;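 also: membrane potential dye fluorescence of choline-evoked depolarization via CHT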
T3 sequence (Q9GZV3 whole entry): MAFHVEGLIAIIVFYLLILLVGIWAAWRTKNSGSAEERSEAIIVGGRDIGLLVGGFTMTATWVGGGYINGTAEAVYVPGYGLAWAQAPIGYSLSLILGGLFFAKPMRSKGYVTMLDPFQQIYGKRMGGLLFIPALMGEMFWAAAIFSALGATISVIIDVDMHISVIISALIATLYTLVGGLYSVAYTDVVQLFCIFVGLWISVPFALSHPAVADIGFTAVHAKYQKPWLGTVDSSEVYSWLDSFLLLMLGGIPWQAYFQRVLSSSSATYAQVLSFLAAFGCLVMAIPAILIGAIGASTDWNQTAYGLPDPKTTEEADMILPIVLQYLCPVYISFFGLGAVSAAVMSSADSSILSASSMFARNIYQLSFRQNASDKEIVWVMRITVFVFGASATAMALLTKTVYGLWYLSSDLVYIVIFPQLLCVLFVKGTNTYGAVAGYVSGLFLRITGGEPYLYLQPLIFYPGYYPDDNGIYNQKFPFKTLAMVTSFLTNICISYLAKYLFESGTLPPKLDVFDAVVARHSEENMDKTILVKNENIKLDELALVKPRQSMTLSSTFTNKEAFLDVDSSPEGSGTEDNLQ

[11] = target: T3, High affinity choline transporter 1; experiment: human choline transporter radiolabel uptake blockers – cell-based, 3H-choline uptake, CHT LV-AA trafficking mutant, CRC, dose response (AID 602208); type: functional
[12] = target: T3, High affinity choline transporter 1; experiment: human choline transporter blockers, potency – cell-based, 5-point CRC, membrane potential dye, dose response (AID 504840); type: functional
[13] = target: Nuclear receptor subfamily 5 group A member 2 (Homo sapiens, UniProt O00482); type: functional, cell-based;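 also: HEK293T cells transfected with LRH-1 and a StAR promoter luciferase reporter; potency for inhibitors that lower LRH-1 driven reporter light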
Steroidogenic factor 1 = Steroidogenic factor 1 (Homo sapiens, UniProt Q13285); experiment: Counterscreen for inverse agonists of the liver receptor homolog-1 (LRH-1; NR5A2): Luminescence-based cell-based high throughput dose response assay to identify inverse agonists of the Steroidogenic Factor 1 Nuclear Receptor (SF1; NR5A1).; type: functional
[14] = nonselective StAR promoter luciferase inhibitors – cell-based, luminescence, luciferase reporter, counter-screen for LRH-1 inverse agonist project, dose response (AID 651969); type: functional
[15] = bead-based luminescence quenchers, dual-tagged ARNT – biochemical, AlphaScreen, cherry-pick, artefact control for ARNT-TACC3 interaction inhibitor project, dose response (AID 651705); type: functional;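 also: AlphaScreen bead proximity signal that flags compounds interfering with the detection technology; potency reflects signal decrease which marks the compound as an assay artifact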
HEK293 [16] = experiment: cells; type: functional, cell-based; conditions: Homo sapiens
[17] = non-specific 3'UTR reporter inhibition in Clone20-Shn3RL – cell-based, Renilla luciferase, cherry-picked, counter-screen for Shn3 inhibitor project, dose response (AID 624133); type: functional
HEK293 [18] = experiment: cells; type: functional, cell-based; conditions: Homo sapiens; remark: listed apart in the source
[19] = target: Nucleotide-binding oligomerization domain-containing protein 2 (Homo sapiens, UniProt Q9HC29); experiment: inhibition of NOD2-driven NF-kB reporter – cell-based, luminescence, uHTS, HEK293 (AID 1566); type: functional
HEK293 [20] = experiment: cells; type: functional, cell-based; conditions: Homo sapiens; remark: listed apart in the source
[21] = reduction of Shn3 3'UTR-driven luciferase in osteoblasts – cell-based, Clone20 osteoblasts, firefly luciferase, cherry-picked, dose response (AID 624132); type: functional;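 also: firefly luciferase luminescence from reporter carrying the Shn3 3'UTR in osteoblasts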
Protein Wnt-3a = Protein Wnt-3a (Mus musculus, UniProt P27467); experiment: antagonism of Wnt3a pathway luciferase reporter – Wnt-LIGHT cells, luminescence, selectivity assay for Gli-SUFU antagonist project, dose response (AID 651570); type: functional; conditions: read-out: IC50_Mean;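 also: Wnt-LIGHT reporter cells stimulated with conditioned medium from Wnt3a-producing cells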
HEK293 [22] = experiment: inhibition of NOD1-driven NF-kB reporter – cell-based, luminescence, uHTS, primary screen (AID 1578); type: functional; conditions: Homo sapiens
[23] = loss of viability in HepG2 cells – cell-based, CellTiter-Glo, cherry-picked, cytotoxicity control for Shn3 inhibitor project, dose response (AID 624134); type: functional
[24] = target: Long-chain-fatty-acid--AMP ligase FadD28 (Mycobacterium tuberculosis, UniProt P9WQ59); experiment: Fluorescence polarization aasay to screen for inhibitors that compete for the binding of FadD28 to a bisubstrate Measured in Biochemical System Using Plate Reader - 2147-01_Inhibitor_Dose_CherryPick_Activity.; type: functional, Mycobacterium tuberculosis H37Rv
[25] = viability of PTEN-deleted HCT116 cells – cell-based, HCT116 PTEN knockout, dose response (AID 1047); type: functional;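 also: HCT116 colon tumor cells with PTEN knocked out; cells exposed to compound for 60 hours before readout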
[26] = target: Benomyl/methotrexate resistance protein (Candida albicans, UniProt P28873); experiment: Candida albicans Mdr1 pump inhibition curves – singleplex, Cherry Pick1 hits, dose response (AID 588608); type: functional
[27] = HEK-293T viability loss after treatment – luminescence, T-cell screen hits, cytotoxicity control for TCR NF-kB inhibitor project, dose response (AID 489026); type: functional, cell-based;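 also: cells exposed to compound about 14 hours before the viability readout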
[28] = NIH-3T3 fibroblast cytotoxicity, dose response, cytotoxicity control, cell-based, fluorescence, Alamar Blue, secondary assay (AID 2327); type: functional;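 also: NIH-3T3 mouse fibroblasts cultured with fluconazole at 8 µg/mL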
[29] = viability of HCT116 lacking mutant beta-catenin – cell-based, human colon tumor, dose response (AID 1045); type: functional;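 also: HCT116 colon tumor cells with beta catenin knocked out; cells exposed to compound for 60 hours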
INS1 = experiment: INS-1E survival protection against cytokine death – cell-based, luminescence, retest, dose response (AID 449756); type: functional; conditions: Rattus norvegicus;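 also: cell death triggered by IL-1 beta plus TNF-alpha plus IFN-gamma mixture; protective hits raise ATP signal compared with cytokine alone wells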
[30] = target: Fructose-bisphosphate aldolase (Mycobacterium tuberculosis, UniProt P9WQA3); experiment: Fluorescence-based biochemical high throughput dose response assay for inhibitors of the fructose-bisphosphate aldolase (FBA) of M. tuberculosis.; type: functional
Melanocortin receptor 4 = Melanocortin receptor 4 (Homo sapiens, UniProt P32245); type: functional, cell-based;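 also: Cell-based assay with luminescence read-out, confirmatory dose-response testing for agonist activity of biased ligands at MC4R; human U2OS cells with tagged receptor and beta-arrestin; potency of agonists that increase receptor coupling to beta-arrestin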
cells [31] = type: functional, cell-based
cells [32] = type: functional, cell-based; remark: listed apart in the source
CHO = CHO cell viability loss, potency – luminescence, cytotoxicity control for TLR9-MyD88 binding inhibitor project, dose response (AID 588339); type: functional, cell-based, hamster; conditions: Cricetulus griseus;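 also: CHO cells stably coexpressing TLR9 and MyD88 fusions from primary screen; compound exposure lasted 48 hours before viability readout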
Beta Lactamase = Beta Lactamase (Pseudomonas aeruginosa, UniProt Q932Y6); experiment: BLA reporter interference, concentration series – BLA reporter cells, FRET fluorescence, artefact control for TLR9-MyD88 binding inhibitor project, dose response (AID 588341); type: cell-based;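 also: cell based assay in CHO-K1 cells stably expressing beta-lactamase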
[33] = target: T4, Sentrin-specific protease 8 (Homo sapiens, UniProt Q96LD8); type: functional
T4 sequence (Q96LD8 whole entry): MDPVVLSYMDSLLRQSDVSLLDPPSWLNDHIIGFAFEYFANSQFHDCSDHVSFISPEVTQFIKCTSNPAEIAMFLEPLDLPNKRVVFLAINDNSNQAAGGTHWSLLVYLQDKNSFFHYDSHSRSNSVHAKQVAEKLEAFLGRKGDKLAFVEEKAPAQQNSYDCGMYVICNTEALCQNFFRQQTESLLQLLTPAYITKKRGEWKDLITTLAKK

[34] = target: T4, Sentrin-specific protease 8; type: functional; remark: listed apart in the source

Nuclear receptor subfamily 5 group A member 2, sequence (O00482 whole entry): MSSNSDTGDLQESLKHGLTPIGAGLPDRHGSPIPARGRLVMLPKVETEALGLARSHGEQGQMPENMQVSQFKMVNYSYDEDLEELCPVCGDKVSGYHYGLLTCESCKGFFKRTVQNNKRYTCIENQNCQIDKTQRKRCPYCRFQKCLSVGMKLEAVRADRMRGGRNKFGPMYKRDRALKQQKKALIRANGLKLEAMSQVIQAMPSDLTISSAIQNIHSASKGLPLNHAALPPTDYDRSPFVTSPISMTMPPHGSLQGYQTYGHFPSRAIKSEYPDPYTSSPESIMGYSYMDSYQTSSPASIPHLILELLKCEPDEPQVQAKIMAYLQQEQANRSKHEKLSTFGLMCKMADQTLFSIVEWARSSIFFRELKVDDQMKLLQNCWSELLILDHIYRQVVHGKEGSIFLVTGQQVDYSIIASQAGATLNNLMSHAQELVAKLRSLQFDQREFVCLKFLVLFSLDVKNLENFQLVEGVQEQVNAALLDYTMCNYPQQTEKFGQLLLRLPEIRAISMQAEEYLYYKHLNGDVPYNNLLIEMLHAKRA
Melanocortin receptor 4, sequence (P32245 whole entry): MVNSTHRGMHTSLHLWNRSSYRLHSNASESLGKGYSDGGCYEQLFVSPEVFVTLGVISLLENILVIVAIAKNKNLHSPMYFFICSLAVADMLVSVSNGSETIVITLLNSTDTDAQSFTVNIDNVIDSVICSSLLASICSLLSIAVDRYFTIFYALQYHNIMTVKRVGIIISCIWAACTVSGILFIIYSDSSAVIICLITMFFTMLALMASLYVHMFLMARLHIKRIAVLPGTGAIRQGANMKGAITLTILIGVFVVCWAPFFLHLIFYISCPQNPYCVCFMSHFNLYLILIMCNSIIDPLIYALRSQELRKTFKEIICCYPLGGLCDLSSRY
Steroidogenic factor 1, sequence (Q13285 whole entry): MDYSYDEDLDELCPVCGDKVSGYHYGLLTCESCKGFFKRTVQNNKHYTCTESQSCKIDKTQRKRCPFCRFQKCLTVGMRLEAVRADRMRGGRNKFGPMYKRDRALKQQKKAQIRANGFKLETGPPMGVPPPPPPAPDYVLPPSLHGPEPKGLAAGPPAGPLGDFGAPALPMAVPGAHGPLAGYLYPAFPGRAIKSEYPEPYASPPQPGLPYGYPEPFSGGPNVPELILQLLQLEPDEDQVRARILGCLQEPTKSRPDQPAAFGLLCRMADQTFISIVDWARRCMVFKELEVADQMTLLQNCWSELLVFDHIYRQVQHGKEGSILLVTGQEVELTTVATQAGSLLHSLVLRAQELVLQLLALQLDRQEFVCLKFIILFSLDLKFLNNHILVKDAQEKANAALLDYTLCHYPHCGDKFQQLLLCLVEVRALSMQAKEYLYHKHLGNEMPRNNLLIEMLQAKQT
Fructose-bisphosphate aldolase, sequence (P9WQA3 whole entry): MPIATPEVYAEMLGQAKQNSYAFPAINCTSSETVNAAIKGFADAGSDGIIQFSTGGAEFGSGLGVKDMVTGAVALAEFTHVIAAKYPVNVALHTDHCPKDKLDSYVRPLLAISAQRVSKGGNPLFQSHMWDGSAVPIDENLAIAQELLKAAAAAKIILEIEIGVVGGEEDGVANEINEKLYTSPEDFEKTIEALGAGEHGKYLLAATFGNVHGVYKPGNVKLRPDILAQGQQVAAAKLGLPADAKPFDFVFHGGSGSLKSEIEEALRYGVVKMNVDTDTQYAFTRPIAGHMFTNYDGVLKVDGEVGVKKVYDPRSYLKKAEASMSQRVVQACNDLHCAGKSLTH
Protein Wnt-3a, sequence (P27467 whole entry): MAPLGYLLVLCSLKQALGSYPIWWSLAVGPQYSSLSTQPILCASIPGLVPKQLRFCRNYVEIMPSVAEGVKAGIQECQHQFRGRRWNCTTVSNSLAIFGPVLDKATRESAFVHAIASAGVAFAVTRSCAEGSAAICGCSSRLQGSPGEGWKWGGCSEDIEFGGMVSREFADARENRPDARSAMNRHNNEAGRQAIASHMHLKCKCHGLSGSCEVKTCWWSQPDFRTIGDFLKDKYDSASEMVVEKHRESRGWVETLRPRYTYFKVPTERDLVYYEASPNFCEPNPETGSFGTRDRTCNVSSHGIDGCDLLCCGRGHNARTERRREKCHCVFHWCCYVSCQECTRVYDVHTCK
Long-chain-fatty-acid--AMP ligase FadD28, sequence (P9WQ59 whole entry): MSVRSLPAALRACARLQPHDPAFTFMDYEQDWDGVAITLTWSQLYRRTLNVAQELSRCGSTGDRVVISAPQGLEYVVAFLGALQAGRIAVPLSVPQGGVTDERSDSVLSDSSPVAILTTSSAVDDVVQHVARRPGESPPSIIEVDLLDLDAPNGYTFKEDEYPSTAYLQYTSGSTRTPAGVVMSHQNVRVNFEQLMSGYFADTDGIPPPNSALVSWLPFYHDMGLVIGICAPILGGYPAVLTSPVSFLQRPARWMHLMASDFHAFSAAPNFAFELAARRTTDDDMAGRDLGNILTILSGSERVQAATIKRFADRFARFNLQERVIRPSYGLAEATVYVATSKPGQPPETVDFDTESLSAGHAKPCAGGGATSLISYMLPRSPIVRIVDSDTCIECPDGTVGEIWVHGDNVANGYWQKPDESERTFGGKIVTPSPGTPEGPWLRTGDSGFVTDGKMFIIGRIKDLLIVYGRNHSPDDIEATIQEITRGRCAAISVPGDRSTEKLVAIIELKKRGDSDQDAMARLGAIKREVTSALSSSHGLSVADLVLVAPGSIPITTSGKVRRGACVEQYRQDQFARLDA
Benomyl/methotrexate resistance protein, sequence (P28873 whole entry): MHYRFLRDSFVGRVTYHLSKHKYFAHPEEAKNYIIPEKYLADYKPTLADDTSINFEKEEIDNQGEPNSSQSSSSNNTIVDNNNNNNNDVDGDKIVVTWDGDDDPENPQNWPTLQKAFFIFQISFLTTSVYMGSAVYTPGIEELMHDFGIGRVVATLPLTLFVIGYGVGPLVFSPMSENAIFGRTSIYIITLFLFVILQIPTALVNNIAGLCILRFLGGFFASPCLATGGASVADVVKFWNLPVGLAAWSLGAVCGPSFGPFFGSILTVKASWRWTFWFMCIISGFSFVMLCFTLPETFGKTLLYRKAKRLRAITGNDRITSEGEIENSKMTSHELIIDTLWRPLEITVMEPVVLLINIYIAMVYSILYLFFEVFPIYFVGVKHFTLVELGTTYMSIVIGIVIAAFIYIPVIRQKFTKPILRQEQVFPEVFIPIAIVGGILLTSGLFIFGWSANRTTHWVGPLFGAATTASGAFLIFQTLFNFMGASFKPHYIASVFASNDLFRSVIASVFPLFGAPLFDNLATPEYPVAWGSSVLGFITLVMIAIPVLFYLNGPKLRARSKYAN
DNA repair and recombination protein RAD54-like, sequence (Q92698 whole entry): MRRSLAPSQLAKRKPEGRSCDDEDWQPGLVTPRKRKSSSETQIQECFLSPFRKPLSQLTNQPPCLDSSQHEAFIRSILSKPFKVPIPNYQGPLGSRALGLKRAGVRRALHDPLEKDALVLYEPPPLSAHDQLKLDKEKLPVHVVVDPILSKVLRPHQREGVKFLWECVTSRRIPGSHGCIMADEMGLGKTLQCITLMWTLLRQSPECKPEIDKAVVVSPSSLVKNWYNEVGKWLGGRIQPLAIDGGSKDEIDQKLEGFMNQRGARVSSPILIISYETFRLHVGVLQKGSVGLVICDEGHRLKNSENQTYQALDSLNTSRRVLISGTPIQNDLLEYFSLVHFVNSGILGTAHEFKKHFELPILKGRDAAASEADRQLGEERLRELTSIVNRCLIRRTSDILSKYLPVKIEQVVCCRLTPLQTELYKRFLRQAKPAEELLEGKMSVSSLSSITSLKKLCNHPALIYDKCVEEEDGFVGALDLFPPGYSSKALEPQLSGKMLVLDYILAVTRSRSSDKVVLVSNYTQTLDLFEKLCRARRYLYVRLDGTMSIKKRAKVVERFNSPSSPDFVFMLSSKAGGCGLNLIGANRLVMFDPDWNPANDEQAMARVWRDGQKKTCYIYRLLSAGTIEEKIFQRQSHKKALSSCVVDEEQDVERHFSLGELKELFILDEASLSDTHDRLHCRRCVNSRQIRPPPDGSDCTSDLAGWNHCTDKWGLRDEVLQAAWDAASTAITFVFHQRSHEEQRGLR
Beta Lactamase, sequence (Q932Y6 whole entry): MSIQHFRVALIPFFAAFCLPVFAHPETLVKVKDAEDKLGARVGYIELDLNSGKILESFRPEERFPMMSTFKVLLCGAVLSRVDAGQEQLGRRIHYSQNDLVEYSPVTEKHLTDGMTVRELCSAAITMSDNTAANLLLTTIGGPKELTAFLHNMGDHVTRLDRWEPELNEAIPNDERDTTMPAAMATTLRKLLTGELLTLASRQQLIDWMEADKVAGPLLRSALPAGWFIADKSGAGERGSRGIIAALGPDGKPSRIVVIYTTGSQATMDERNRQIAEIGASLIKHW

Compound: COc1ccc(NC(=O)c2ccc(-c3ccc(-c4noc(C)n4)cc3C)cc2)cc1N1CCN(C)CC1
- IC50 [1]: > 20 µM (inactive)
- AC50 [2]: 8.08 µM (active)
- AC50 [3]: 8.17 µM (active)
- AC50 [4]: 22.7 µM (active)
- AC50 [5]: 14.5 µM (active)
- AC50 [6]: 79 µM (active)
- AC50 [7]: 7.71 µM (active)
- AC50 [8]: 27.6 µM (active)
- AC50 [9]: 14.4 µM (active)

Compound: O=C(Nc1ccc(S(=O)(=O)Nc2ccccn2)cc1)c1ccc(Cl)cc1Cl
- IC50 [10]: 3.81 µM (active)
- IC50 [11]: 12.8 µM (active)
- IC50 [12]: 4.17 µM (active)

Compound: CCc1cc(CNC(=O)c2ccc(OC)c(OC3CCN(C(C)C)CC3)c2)on1
- IC50 [10]: 0.597 µM (active)
- IC50 [11]: 0.0189 µM (active)
- IC50 [12]: 0.316 µM (active)

Compound: O=C(Nc1ccc(S(=O)(=O)N2CCOCC2)cc1)c1cccc([N+](=O)[O-])c1
- IC50 [13]: 12 µM (inactive)
- IC50 (Steroidogenic factor 1): 2.2 µM (active)
- IC50 [14]: 35.9 µM (inactive)

Compound: CCN(CC)C(=O)c1sc2nc(-c3ccccn3)nc(O)c2c1C
- AC50 [15]: 77.1 µM (active)

Compound: CC(=O)c1cn(Cc2ccccc2F)c2ccccc12
- IC50 (HEK293 [16]): > 20 µM (inactive)
- AC50 [17]: 9.56 µM (active)
- IC50 (HEK293 [18]): 5 µM (active)
- EC50 [19]: 4.05 µM (active)
- IC50 (HEK293 [20]): > 20 µM (inactive)
- AC50 [21]: 2.96 µM (active)
- IC50 (Protein Wnt-3a): 0.491 µM (active)
- EC50 (HEK293 [22]): 2.96 µM (active)
- AC50 [23]: 3.35 µM (active)

Compound: COc1cccc(NC(=O)Cn2nnc(-c3ccccc3N)n2)c1
- AC50 [24]: 66.6 µM (active)

Compound: C#CC[N+](C)(C)CCCCCCCCCCCC
- EC50 [25]: 2.9 µM (active)
- EC50 [26]: 0.312 µM (active)
- IC50 [27]: > 80 µM (inactive)
- EC50 [28]: > 160 µM (inconclusive)
- IC50 (Protein Wnt-3a): 0.279 µM (active)
- EC50 [29]: 3.33 µM (active)
- AC50 (INS1): 4.61 µM (active)

Compound: COc1ccc(CCNC(=O)COC(=O)C23CC4CC(CC(Br)(C4)C2)C3)cc1
- IC50 [13]: 16.6 µM (inactive)
- IC50 (Steroidogenic factor 1): 4.45 µM (active)
- IC50 [14]: 35.9 µM (inactive)

Compound: O=C(COC(=O)c1cccs1)Nc1nnc(-c2ccccc2)o1
- AC50 [15]: 102 µM (active)

Compound: Cc1nn(C)cc1-c1cc(C(=O)O)c2ccccc2n1
- IC50 [30]: 1.91 µM (active)

Compound: COc1cccc(-c2cnc3c(NC(C)=O)cc(-c4ccsc4)cn23)c1
- EC50 (Melanocortin receptor 4): 26.2 µM (inactive)

Compound: O=C1CCC(=O)c2ccc3c4c(ccc1c24)CC3
- IC50 [30]: 1.56 µM (active)

Compound: COc1ccc(/C=N/NC(=O)c2ccc(COc3ccccc3Cl)o2)c(OC)c1C
- EC50 (Melanocortin receptor 4): > 89.2 µM (inactive)

Compound: COC(=O)[C@]12C[C@H](CC(=O)NCCc3ccccc3OC)C(=O)N(Cc3ccc4c(c3)OCO4)C1=C[C@H](COCc1ccccc1)O[C@@H]2C
- IC50 (cells [31]): > 29.9 µM (inactive)
- EC50 (cells [32]): > 29.9 µM (inactive)

Compound: Cc1ccc(SCc2c(C(=O)N/N=C/c3ccoc3)nnn2-c2nonc2N)cc1
- AC50 [24]: > 100 µM (inactive)

Compound: O=C1Cc2ccccc2C(=O)N1c1ccccc1
- IC50 (CHO): > 49.7 µM (inactive)
- IC50 (Beta Lactamase): 3.97 µM (active)
- IC50 [33]: > 100 µM (inactive)
- IC50 [34]: 12.9 µM (active)
